From paper PMC4328002 (Natural Products and Bioprospecting, 2015)
Values joined by “and” are separate entries in the source; they are usually repeats but may differ in a detail not shown here. Equal values may be shown once. Read-outs that look alike come from different tables or passages of the source.

Columns and labels:
[1] = system: HL-60 (promyelocytic leukemia); experiment: cells; assay type: cell-based, human; details: read-out: Cancer cell line IC50, HL-60
[2] = system: SMMC-7721 (hepatocarcinoma); experiment: cells; assay type: cell-based, human; details: read-out: Cancer cell line IC50, SMMC-7721
A549 (lung carcinoma) = experiment: cells; assay type: cell-based, human
[3] = system: MCF-7 (breast adenocarcinoma); experiment: cells; assay type: cell-based, human; details: read-out: Cancer cell line IC50, MCF-7
[4] = system: SW-480 (colon adenocarcinoma); experiment: cells; assay type: cell-based, human; details: read-out: Cancer cell line IC50, SW480
[5] = system: HL-60, SMMC-7721, A549, MCF-7 and SW-480 human cancer cell lines; experiment: cells; assay type: cell-based; details: read-out: IC50 values across the five cancer cell lines
[6] = system: BEAS-2B normal cell line (human bronchial epithelial cell); details: for IC50: read-out: Cancer cell line IC50, BEAS-2B
[7] = system: BEAS-2B normal cell line (human bronchial epithelial cell); experiment: cells; details: read-out: Cancer cell line IC50, BEAS-2B
[8] = read-out: Cancer cell line IC50, A549
[9] = Homo sapiens, A549, 48 h, read-out: Cancer cell line IC50, A549
[10] = Homo sapiens, A549, read-out: Cancer cell line IC50, A549

Structure (SMILES) | IC50 [1] [µM] | IC50 [2] [µM] | IC50 (A549 (lung carcinoma); [8]) | IC50 [3] [µM] | IC50 [4] [µM] | IC50 [5] [µM] | selective cytotoxicity against the A549 cell line [6] | IC50 [6] [µM] | IC50 ([1]; Homo sapiens, HL-60, 48 h) [µM] | IC50 ([2]; Homo sapiens, SMMC-7721, 48 h) [µM] | IC50 (A549 (lung carcinoma); [9]) [µM] | IC50 (A549 (lung carcinoma); [10]) [µM] | IC50 ([3]; Homo sapiens, MCF7, 48 h) [µM] | IC50 ([4]; Homo sapiens, SW480, 48 h) [µM] | IC50 ([5]; Homo sapiens, 48 h) [µM] | IC50 [7] [µM]
C/C=C\C(=O)O[C@@H]1[C@@H](O)[C@H]2O[C@@H]3C=C(C)C(=O)C[C@]3(C)[C@]1(C)[C@]21CO1 [Compound 10, trichothecinol A] | 0.022 | 0.02 | 0.015 µM and 0.016 µM | 0.006 | 0.011 | < 3.5 | did not exhibit selective cytotoxicity | 0.025 |  |  |  |  |  |  |  | 
N.N.[Cl][Pt][Cl] [Cisplatin, cisplatin, reference compound] | 1.91 | 5.81 | 6.43 µM and 9.72 µM | 13.3 | 12 |  |  | 9.53 |  |  |  |  |  |  |  | 
C/C=C\C(=O)O[C@@H]1C[C@H]2O[C@@]34C=C(C)C(=O)C[C@]3(C)[C@]1(C)[C@]2(CO)O4 [Compound 1, engleromycone A] |  |  |  |  |  |  | did not exhibit selective cytotoxicity |  | 14.3 | 19.1 | 19.1 | 18.9 | 18 | 20.2 | 14.3 to 20.2 | 19.4
CC(=O)O[C@H]1C(=O)[C@@]2(C)[C@H]([C@H](OC(=O)c3ccccc3)[C@]3(O)C[C@H](OC(=O)[C@H](O)[C@@H](NC(=O)c4ccccc4)c4ccccc4)C(C)=C1C3(C)C)[C@]1(OC(C)=O)CO[C@@H]1C[C@@H]2O [Taxol, paclitaxel, reference compound] |  |  |  |  |  |  |  |  | < 0.008 | < 0.008 | < 0.008 | < 0.008 | < 0.008 | < 0.008 |  | < 0.98
CC1=C[C@]23O[C@@H]4[C@@H](O)C[C@](C)([C@@]2(C)CC1)[C@]4(CO)O3 [Compound 3, sambucinol] |  |  |  |  |  |  |  |  | > 40 | > 40 | > 40 |  | > 40 | > 40 | > 40 | 
CC1=C[C@]23O[C@@H]4CC[C@](C)([C@@]2(C)CC1)[C@]4(CO)O3 [Compound 4, 3-deoxysambucinol] |  |  |  |  |  |  |  |  | > 40 | > 40 | > 40 |  | > 40 | > 40 | > 40 | 
C=C1[C@H]2C[C@@H](OC(=O)/C=C\C)[C@]1(C)[C@@]1(C)CC(=O)C(C)=C[C@H]1O2 [Compound 2, engleromycone B] |  |  |  |  |  |  | did not exhibit selective cytotoxicity |  | 2.7 | 8.41 | 2.98 | 5.82 | 21.1 | 9.25 | 2.7 to 21.1 | 9.87
C/C=C\C(=O)O[C@@H]1C[C@H]2O[C@@H]3C=C(C)C(=O)C[C@]3(C)[C@]1(C)[C@]21CO1 [Compound 8, trichothecin] | 0.14 | 0.22 | 0.2 µM and 0.22 µM | 0.21 | 0.18 | < 3.5 | did not exhibit selective cytotoxicity | 0.27 |  |  |  |  |  |  |  | 
CC1=C[C@H]2O[C@@H]3C[C@@H](O)[C@](C)([C@@]2(C)CC1=O)[C@]31CO1 [Compound 5, trichothecolone] | 4.86 | 6.92 | 4.16 µM and 5.71 µM | 16.5 | 8.52 |  | did not exhibit selective cytotoxicity | 4.18 |  |  |  |  |  |  |  | 
